For one test, the target named is T1, Mammalian Ca^2+-ATPase (Oryctolagus cuniculus, UniProt P04191).
T1 construct: from tissue; host or cells: rabbit hind leg muscle, sarcoplasmic reticulum membranes (gift, Aarhus University)
The test is described as follows: Colorimetric ATPase assay, rabbit sarcoplasmic reticulum membranes (SERCA). It is filed as biochemical. The source says: (§1) To investigate the H^+-ATPase inhibitory effect of the compounds we isolated plasma membranes containing H^+-ATPase from S. cerevisiae and C. albicans cells.[15] Plasma membranes isolated from pig kidney as well as endoplasmic reticulum membranes from rabbit hind leg muscle were used to counter-screen compounds for activity against mammalian Na^+,K^+-ATPase and Ca^2+-ATPase, respectively. Prior to their use, fungal plasma membrane batches were validated by determining the maximum ATP hydrolysis activity, the pH optimum of the ATPase activity, and the sensitivity to inhibition by orthovanadate. ATPase activity was determined by a colorimetric assay that measures the amount of inorganic phosphate liberated over time, as described in Kjellerup et al., 2017.[15] Table 2, Table 3, Table 4 list the IC50 values obtained by measuring the concentration dependence of the ATPase activity for the fifteen carbazole compounds with each of the four membrane preparations.
(§2) Pma1-containing plasma membranes were prepared from S. cerevisiae RS72 yeast cells that had been transformed with the full-length cDNA of the S. cerevisiae plasma membrane H^+-ATPase isoform PMA1 under control of the PMA1 promoter, using the same procedure as described in Kongstad et al., 2014^1. For the preparation of C. albicans membranes, a 100 ml overnight culture grown in YPD (10 g/L yeast extract (BD, Sparks, MD), 20 g/L Bacto peptone (BD), 20 g/L D-(+)-glucose) was transferred to 1 L YPD and grown for a further 7 h at RT with agitation (150 rpm), followed by cell harvesting and subsequent membrane preparation using the same procedure as described in Kongstad et al., 2014^1. […] Rabbit sarcoplasmic reticulum membranes containing Sarco/Endoplasmic Reticulum Ca^2+ ATPase (SERCA) were kindly provided by Dr. Claus E. Olesen and Dr. Jesper V. Møller, Aarhus University and prepared as described in Andersen et al., 1985^2. Pig kidney Na^+,K^+-ATPase was kindly provided by Dr. Natalya Fedosova, Aarhus University and prepared as described in Klodos et al., 2002^3.
(§3) The compound libraries were purchased from Enamine Ltd, Ukraine and Chembridge Corp, USA. ATPase activity was determined by measuring the amount of liberated phosphate from ATP hydrolysis. […] Reactions were initiated by the addition of Na-ATP to a final concentration of 2.5 mM (Pma1 and Na^+,K^+-ATPase) or 5 mM (SERCA), followed by 30 minutes incubation at 30 °C. The amount of liberated phosphate was determined colorimetrically after addition of STOP solution (mixture of L-ascorbic acid, ammonium heptamolybdate tetrahydrate, and HCl to give final concentrations of 65 mM, 2.2 mM, and 189 mM, respectively) with 5 minutes incubation at room temperature (RT) followed by addition of arsenite solution (mixture of NaAsO2, sodium citrate dihydrate, and acetic acid to give final concentrations of 3.1 mM, 28 mM, and 141 mM, respectively). Absorption was measured at 860 nm after an additional 30 minutes incubation at RT.

A further test has as its target T2, S. cerevisiae H^+-ATPase (Saccharomyces cerevisiae, UniProt P05030).
T2 construct: transformed with the full-length cDNA of the S. cerevisiae plasma membrane H^+-ATPase isoform PMA1; made in house; host or cells: S. cerevisiae RS72
The test is described as follows: Colorimetric ATPase assay (ATP hydrolysis), S. cerevisiae plasma membranes. As to conditions: for IC50: pH 7, n = 3. It is filed as biochemical.
Excerpt: as §1, §2, §3

Another test has as its target T3, C. albicans H^+-ATPase (Candida albicans, UniProt P28877).
T3 construct: endogenous in cells; host or cells: C. albicans culture grown in YPD; microsomal membrane preparation
The test is described as follows: Colorimetric ATPase assay (ATP hydrolysis), C. albicans membranes. It is filed as biochemical. The settings on record: pH 7, n = 3.
Excerpt: as §1, §2, §3

For another test, the system named is Candida glabrata Cg003. The test is described as follows: Fungal growth inhibition MIC (MFC). It is filed as cell-based. The settings on record: Nakaseomyces glabratus, Candida glabrata Cg003 (clinical azole-resistant isolate); for MIC: RPMI-1640; for MFC: value in brackets. An excerpt:
(§4) We subsequently assessed the carbazole series for antifungal activity, as described in Kjellerup et al., 2017.[15] Table 2, Table 3, Table 4, Table 5 list the minimum inhibitory concentrations (MIC) and the minimum fungicidal concentrations (MFC) of the fifteen compounds tested against the yeasts Saccharomyces cerevisiae, Candida albicans, C. krusei, and two isolates of C. glabrata (a wild-type strain ATCC 90030 and a clinical azole-resistant isolate Cg003 with increased efflux pump expression[19]), and the molds Aspergillus fumigatus and A. flavus. MIC was defined as the lowest concentration inhibiting visual growth of the microorganism in RPMI-1640 media. […] However, in several cases antifungal activity against molds was minimal, Table 5.
(§5) Compound hits from the library screening were evaluated against baker yeast S. cerevisiae and C. albicans (ATCC 90028). The minimum inhibitory concentration (MIC) was defined as the lowest concentration inhibiting visual growth of the microorganism and this was determined in triplicate. Standard errors were typically less than 5%. MICs for synthesized compounds were determined on the following fungal isolates: Saccharomyces cerevisiae (ATCC 9763), Candida albicans (SC5314), Candida krusei (ATCC 6258), Candida glabrata (ATCC 90030), Aspergillus flavus (ATCC MYA-1005) and Aspergillus fumigatus (ATCC 13073), which were purchased from American Type Culture Collection, and C. glabrata strain Cg003, which was kindly provided by Julius Subik, Comenius University in Bratislava, Slovak Republic. Cg003 is a clinical isolate, characterized to be resistant to fluconazole and itraconazole due to overexpression of the multidrug resistance efflux pumps Cdr1p and Cdr2p^5. The fungal growth assay was performed as described in Kjellerup et al., 2017^6.

The subject of test [1] is Saccharomyces cerevisiae ATCC 9763. The test is described as follows: Fungal growth inhibition MIC (MFC). It is filed as cell-based. The settings on record: ATCC9763; for MIC: Saccharomyces cerevisiae ATCC 9763, RPMI-1640; for MFC: Saccharomyces cerevisiae ATCC 9763, value in brackets.
Excerpt: as §4, §5

For the next test, the system named is Candida albicans SC5314. The test is described as follows: Fungal growth inhibition MIC (MFC). It is filed as cell-based. As to conditions: for MIC: Candida albicans SC5314, RPMI-1640; for MFC: Candida albicans SC5314, value in brackets.
Excerpt: as §4, §5

The next test concerns Candida krusei ATCC 6258. The test is described as follows: Fungal growth inhibition MIC (MFC). It is filed as cell-based. The settings on record: Pichia kudriavzevii, ATCC6258; for MIC: Candida krusei ATCC 6258, RPMI-1640; for MFC: Candida krusei ATCC 6258, value in brackets.
Excerpt: as §4, §5

Test [2] concerns Aspergillus fumigatus ATCC 13073. The test is described as follows: Mold growth inhibition. It is filed as cell-based. The settings on record: ATCC13073; Aspergillus fumigatus ATCC 13073, n=3; read-out: Fungal Growth Inhibition MIC.
Excerpt: as §4, §5

Test [3] relates to Aspergillus flavus ATCC MYA-1005. The test is described as follows: Mold growth inhibition. The class given is cell-based. As to conditions: Aspergillus flavus ATCC MYA-1005, n=3; read-out: Fungal Growth Inhibition MIC.
Excerpt: as §4, §5

In test [4] the target is T4, Mammalian Na^+,K^+-ATPase (Sus scrofa, UniProt P05024).
T4 construct: from tissue; host or cells: pig kidney plasma membranes (gift, Aarhus University; prepared per Klodos et al., 2002)
The test is described as follows: Colorimetric ATPase assay, pig kidney membranes. It is filed as biochemical. The settings on record: for IC50: pH 7, n = 3, read-out: ATP hydrolysis IC50 Mammalian Na^+,K^+-ATPase; for selectivity among the four ATPases: lower IC50 value on Na^+,K^+-ATPase.
Excerpt: as §1, §2, §3

Consider six molecules from PMC5609566, “Elucidation of antimicrobial activity and mechanism of action by N-substituted carbazole derivatives” (Bioorganic & Medicinal Chemistry Letters, 2017).

Structures are written as SMILES. ≈ marks a conversion by molar mass, not a printed value. Read-outs that look alike come from different tables or passages of the source. Bounds are passed on as bounds.

T3 sequence (P28877 whole entry): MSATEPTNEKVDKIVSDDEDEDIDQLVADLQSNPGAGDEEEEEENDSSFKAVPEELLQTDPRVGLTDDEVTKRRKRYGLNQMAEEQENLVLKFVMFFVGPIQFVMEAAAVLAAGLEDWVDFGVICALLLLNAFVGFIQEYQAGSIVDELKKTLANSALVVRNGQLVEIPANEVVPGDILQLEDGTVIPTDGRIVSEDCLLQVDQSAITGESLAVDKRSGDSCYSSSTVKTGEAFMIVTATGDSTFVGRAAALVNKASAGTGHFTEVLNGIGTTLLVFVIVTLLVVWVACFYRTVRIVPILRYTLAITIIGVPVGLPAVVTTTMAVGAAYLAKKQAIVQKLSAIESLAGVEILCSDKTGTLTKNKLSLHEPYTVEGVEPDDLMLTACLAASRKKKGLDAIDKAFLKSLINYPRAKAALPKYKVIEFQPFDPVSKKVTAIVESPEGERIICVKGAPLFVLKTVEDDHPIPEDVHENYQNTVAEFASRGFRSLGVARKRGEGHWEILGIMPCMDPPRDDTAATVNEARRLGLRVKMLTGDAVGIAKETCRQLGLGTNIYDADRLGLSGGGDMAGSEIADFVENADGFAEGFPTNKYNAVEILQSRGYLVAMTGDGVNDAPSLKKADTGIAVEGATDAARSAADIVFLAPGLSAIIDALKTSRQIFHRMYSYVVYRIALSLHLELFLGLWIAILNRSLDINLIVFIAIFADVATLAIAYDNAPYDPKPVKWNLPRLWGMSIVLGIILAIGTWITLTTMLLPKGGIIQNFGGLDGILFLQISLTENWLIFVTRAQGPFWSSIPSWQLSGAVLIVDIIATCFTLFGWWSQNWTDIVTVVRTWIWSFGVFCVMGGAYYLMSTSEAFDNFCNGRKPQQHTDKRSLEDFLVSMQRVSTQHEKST
T2 sequence (P05030 whole entry, canonical isoform): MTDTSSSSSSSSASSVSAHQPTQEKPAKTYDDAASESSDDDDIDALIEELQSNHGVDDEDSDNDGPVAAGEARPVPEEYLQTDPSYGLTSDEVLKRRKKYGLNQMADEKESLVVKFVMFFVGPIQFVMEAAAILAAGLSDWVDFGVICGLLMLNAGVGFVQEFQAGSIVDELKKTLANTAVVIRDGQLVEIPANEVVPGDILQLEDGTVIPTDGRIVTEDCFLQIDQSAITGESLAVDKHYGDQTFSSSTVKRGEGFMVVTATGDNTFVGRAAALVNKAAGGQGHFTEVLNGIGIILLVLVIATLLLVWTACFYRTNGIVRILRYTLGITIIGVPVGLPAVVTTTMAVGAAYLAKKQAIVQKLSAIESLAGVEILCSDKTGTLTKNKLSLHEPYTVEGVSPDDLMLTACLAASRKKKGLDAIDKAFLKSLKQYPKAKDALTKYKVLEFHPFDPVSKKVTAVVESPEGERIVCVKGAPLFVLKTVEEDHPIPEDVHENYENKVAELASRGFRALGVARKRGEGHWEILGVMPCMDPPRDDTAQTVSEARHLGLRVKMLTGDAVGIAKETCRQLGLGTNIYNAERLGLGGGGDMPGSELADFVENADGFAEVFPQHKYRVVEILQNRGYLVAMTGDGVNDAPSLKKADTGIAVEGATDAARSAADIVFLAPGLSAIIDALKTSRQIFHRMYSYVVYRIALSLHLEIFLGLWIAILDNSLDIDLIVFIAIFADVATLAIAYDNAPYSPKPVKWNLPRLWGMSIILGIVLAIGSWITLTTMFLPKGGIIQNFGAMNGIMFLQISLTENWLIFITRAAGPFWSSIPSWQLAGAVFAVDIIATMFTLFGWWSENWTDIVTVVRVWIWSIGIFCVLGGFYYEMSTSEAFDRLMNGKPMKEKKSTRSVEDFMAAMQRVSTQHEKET
T1 sequence (P04191 1-994 isoform P04191-2): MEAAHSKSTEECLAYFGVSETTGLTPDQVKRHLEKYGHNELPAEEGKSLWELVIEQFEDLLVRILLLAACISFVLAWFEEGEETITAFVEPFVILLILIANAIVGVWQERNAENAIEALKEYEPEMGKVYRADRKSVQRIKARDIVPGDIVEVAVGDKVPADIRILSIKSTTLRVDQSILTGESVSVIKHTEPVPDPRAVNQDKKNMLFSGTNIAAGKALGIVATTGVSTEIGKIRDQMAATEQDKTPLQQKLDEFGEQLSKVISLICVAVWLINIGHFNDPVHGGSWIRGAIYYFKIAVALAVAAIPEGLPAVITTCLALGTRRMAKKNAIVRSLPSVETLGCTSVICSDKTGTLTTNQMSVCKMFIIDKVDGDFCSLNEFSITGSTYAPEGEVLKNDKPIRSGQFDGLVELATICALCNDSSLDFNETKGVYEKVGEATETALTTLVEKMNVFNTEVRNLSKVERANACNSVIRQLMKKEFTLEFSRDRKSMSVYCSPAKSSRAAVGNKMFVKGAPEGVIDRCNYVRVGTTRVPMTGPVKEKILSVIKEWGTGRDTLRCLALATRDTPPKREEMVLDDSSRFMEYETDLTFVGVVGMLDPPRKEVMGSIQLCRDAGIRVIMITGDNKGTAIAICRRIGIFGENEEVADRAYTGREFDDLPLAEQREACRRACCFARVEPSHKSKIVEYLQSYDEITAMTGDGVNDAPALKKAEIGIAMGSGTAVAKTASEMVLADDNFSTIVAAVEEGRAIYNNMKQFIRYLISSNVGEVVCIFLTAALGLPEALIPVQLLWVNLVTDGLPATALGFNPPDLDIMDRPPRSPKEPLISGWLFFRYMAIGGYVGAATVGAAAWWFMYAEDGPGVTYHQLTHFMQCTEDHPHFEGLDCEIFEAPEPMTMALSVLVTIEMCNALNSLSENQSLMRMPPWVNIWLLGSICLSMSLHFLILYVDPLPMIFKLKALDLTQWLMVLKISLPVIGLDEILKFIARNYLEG

Regarding `CCC(C)NCC(O)Cn1c2ccc(Cl)cc2c2cc(Cl)ccc21` (stereo not drawn) [Compound 10, 1-(sec-butylamino)-3-(3,6-dichloro-9H-carbazol-9-yl)propan-2-ol], the IC50 (commonly the midpoint of a concentration-inhibition curve) on Mammalian Ca^2+-ATPase (pH 7, n = 3, read-out: ATP hydrolysis IC50 Mammalian Ca^2+-ATPase) amounted to 0.3 ± 0.1 µM; against S. cerevisiae H^+-ATPase it was 2 ± 0.2 µM; on C. albicans H^+-ATPase, 1.1 ± 0.2 µM; in test [4] it was 1 ± 0.2 µM. For the same molecule, the “fold more potent H^+-ATPase inhibition than the parent compounds 1–4” value on S. cerevisiae H^+-ATPase (IC50 ratio) is “ca. 9 fold”. Further, the minimum inhibitory concentration (MIC) (commonly the lowest concentration that inhibits growth of the organism) was 5.6 µM (≈ 2.05 µg/mL) against Candida glabrata Cg003; 0.4 µM (≈ 0.146 µg/mL) in test [1]; 3.7 µM (≈ 1.35 µg/mL) against Candida albicans SC5314; 2.9 µM (≈ 1.06 µg/mL) in the test on Candida krusei ATCC 6258; 3.7 µM (≈ 1.35 µg/mL) in [2]; 12 µM (≈ 4.38 µg/mL) in test [3]. For the same molecule, the MFC (in general, the smallest concentration meeting the test's criterion for killing the fungus) was found to be 7.9 µM (≈ 2.89 µg/mL) in the test with Candida glabrata Cg003, 1.2 µM (≈ 0.438 µg/mL) in test [1], 3.8 µM (≈ 1.39 µg/mL) in the test with Candida albicans SC5314 and 3.8 µM (≈ 1.39 µg/mL) with Candida krusei ATCC 6258.

As to `CN(C)CCCn1c2ccc(Cl)cc2c2cc(Cl)ccc21` [Compound 14, 3-(3,6-dichloro-9H-carbazol-9-yl)-N,N-dimethyl-propan-1-amine], the 50% inhibitory concentration (IC50) came out at 13 ± 2.1 µM against Mammalian Ca^2+-ATPase, 36.2 ± 3.1 µM against S. cerevisiae H^+-ATPase, 23.3 ± 5.3 µM against C. albicans H^+-ATPase and 2.1 ± 0.5 µM in [4]. Moreover, the MIC with Candida glabrata Cg003 was 24 µM (≈ 7.71 µg/mL); in [1], 5.8 µM (≈ 1.86 µg/mL); against Candida albicans SC5314, 24 µM (≈ 7.71 µg/mL); in the test with Candida krusei ATCC 6258, 13 µM (≈ 4.18 µg/mL); in [2], above 75 µM; in test [3], above 75 µM. The MFC in the test with Candida glabrata Cg003 came out at 75 µM (≈ 24.1 µg/mL); in test [1], 16 µM (≈ 5.14 µg/mL); in the test with Candida albicans SC5314 it was 75 µM (≈ 24.1 µg/mL); against Candida krusei ATCC 6258, 24 µM (≈ 7.71 µg/mL).

For the molecule `CN1CCN(CC(O)Cn2c3ccc(C#N)cc3c3cc(C#N)ccc32)CC1` (stereo not drawn) [Compound 12, 9-(2-hydroxy-3-(4-methylpiperazin-1-yl)propyl)-9H-carbazole-3,6-dicarbonitrile], the IC50 against Mammalian Ca^2+-ATPase is 92.7 ± 13.1 µM; against S. cerevisiae H^+-ATPase, above 167 µM; at C. albicans H^+-ATPase it was 144 ± 14.7 µM; in [4], 10.5 ± 1.4 µM. The minimal inhibitory concentration (MIC) (against Candida glabrata Cg003; in test [1]; against Candida albicans SC5314; against Candida krusei ATCC 6258; in test [2]; in [3]) was above 75 µM each time. The minimum fungicidal concentration (MFC) (against Candida glabrata Cg003; in test [1]; in the test on Candida albicans SC5314; in the test with Candida krusei ATCC 6258) was above 75 µM each time. The “selectivity among the four ATPases” value in test [4] is given as “pronounced selectivity towards Na^+,K^+-ATPase”.

As for `O=C(O)C1CCN(CC(O)Cn2c3ccc(Cl)cc3c3cc(Cl)ccc32)CC1` (stereo not drawn) [Compound 9, 1-(3-(3,6-dichloro-9H-carbazol-9-yl)-2-hydroxypropyl)piperidine-4-carboxylic acid], the half-maximal inhibitory concentration (IC50) against Mammalian Ca^2+-ATPase is 97.6 ± 25.7 µM; against S. cerevisiae H^+-ATPase, 107 ± 11.8 µM; against C. albicans H^+-ATPase it was 105 ± 13.9 µM; in [4], 4 ± 0.7 µM. Moreover, the MIC (in the test on Candida glabrata Cg003; in [1]; against Candida albicans SC5314; in the test with Candida krusei ATCC 6258; in [2]; in [3]) was above 75 µM throughout. In addition, the MFC (against Candida glabrata Cg003; in test [1]; in the test with Candida albicans SC5314; with Candida krusei ATCC 6258) was above 75 µM in each case. Also, in [4], the “selectivity among the four ATPases” value is “pronounced selectivity towards Na^+,K^+-ATPase”.

Take `COc1ccc2c(c1)c1cc(OC)ccc1n2CC(O)CN1CCN(C)CC1` (stereo not drawn) [Compound 11, 1-(3,6-dimethoxy-9H-carbazol-9-yl)-3-(4-methylpiperazin-1-yl)propan-2-ol]: the IC50 (against Mammalian Ca^2+-ATPase; at S. cerevisiae H^+-ATPase; at C. albicans H^+-ATPase; in test [4]) was above 167 µM throughout. Moreover, the minimal inhibitory concentration (MIC) (against Candida glabrata Cg003; in test [1]; against Candida albicans SC5314; against Candida krusei ATCC 6258; in [2]; in [3]) was above 75 µM in each case. For the same molecule, the MFC (in the test with Candida glabrata Cg003; in test [1]; in the test with Candida albicans SC5314; against Candida krusei ATCC 6258) was above 75 µM each time.

As to `OC(Cn1cncn1)Cn1c2ccc(Cl)cc2c2cc(Cl)ccc21` (stereo not drawn) [Compound 6, 1-(3,6-dichloro-9H-carbazol-9-yl)-3-(1H-1,2,4-triazol-1-yl)propan-2-ol], the IC50 worked out at 20.3 ± 3.6 µM at Mammalian Ca^2+-ATPase, 7.4 ± 1.6 µM on S. cerevisiae H^+-ATPase, 4 ± 1.2 µM on C. albicans H^+-ATPase and 5.2 ± 0.3 µM in [4]. The minimum inhibitory concentration (MIC) in the test on Candida glabrata Cg003 is above 75 µM; in [1] it was 75 µM (≈ 27.1 µg/mL); against Candida albicans SC5314 it was 75 µM (≈ 27.1 µg/mL); in the test on Candida krusei ATCC 6258 it was above 75 µM; in [2], above 75 µM; in [3], above 75 µM. The MFC (against Candida glabrata Cg003; in [1]; with Candida albicans SC5314; in the test with Candida krusei ATCC 6258) was above 75 µM throughout.
